# Counter-ions that a name gives are not always drawn.
# Test system: ddY male mice
# Assay: Thromboembolic respiratory depression induced by ADP
# Type: in vivo
# Details: 30 mg/kg oral, ADP 40 mg/kg i.v., Compound (I) = erythro form
# Method: The degree of formation of platelet thrombi in the pulmonary vessels of mice induced by intravenous administration of ADP can be measured based on the decrease in the respiratory rate. The anti-platelet thrombotic action of test drugs can be evaluated by using this decrease in the respiratory rate as a standard. […] Relative respiratory rate (%) was calculated according to the following formula. [formula] (cf. "Thrombosis Research", Vol. 35, Page 311, 1984)
smiles,measurement,setting,value
CC(C(O)c1ccc(O)cc1)N1CCC(Cc2ccccc2)CC1 (centres unmarked) [Ifenprodil tartrate],Relative respiratory rate (%),1/3 hr after administration,34.6 ±10.2 (n=8) %
same,Relative respiratory rate (%),1 hr after administration,61.3 ±9.3 (n=6) %
same,Relative respiratory rate (%),2 hr after administration,52.7 ±6.1 (n=10) %
same,Relative respiratory rate (%),3 hr after administration,41.0 ±4.4 (n=8) %
same,Relative respiratory rate (%),5 hr after administration,23.0 ±9.9 (n=7) %

# Reference: patent EP0232423A1, “CIRCULATION IMPROVING AGENT” (GRELAN PHARMACEUTICAL CO., LTD., priority 1985, dated 1987)
